Data: the NIST ThermoML archive (doi:10.1021/je060271a)
Where “and” joins values, the source holds several entries; their conditions need not be identical. Equal entries are not always repeated.

Conditions: 343.16 K, Liquid, Vibrating tube method

CCCCCC(=O)OCC(COC(=O)CCCCC)(COC(=O)CCCCC)COC(=O)CCCCC [pentaerythritol tetrahexanoate]
Conditions	mass density
12946 kPa	966.8 kg/m3
12969 kPa	966.9 kg/m3
13446 kPa	967.2 kg/m3
13485 kPa	967.3 kg/m3
13510 kPa	967.1 kg/m3
13521 kPa	967.2 kg/m3
13524 kPa	967.2 kg/m3
13527 kPa	967.3 kg/m3
13530 kPa	967.2 kg/m3
13534 kPa	967.1 kg/m3
13539 kPa	967.2 kg/m3
13542 kPa	967.2 kg/m3
13545 kPa	967.2 kg/m3
13548 kPa	967.2 kg/m3
13550 kPa	967.1 kg/m3
13554 kPa	967.3 kg/m3
13556 kPa	967.3 kg/m3
13562 kPa	967.2 kg/m3
13571 kPa	967.4 kg/m3
13578 kPa	967.2 kg/m3
13593 kPa	967.3 kg/m3
13604 kPa	967.2 kg/m3 and 967.4 kg/m3
13605 kPa	967.3 kg/m3 and 967.2 kg/m3
13606 kPa	967.2 kg/m3 and 967.3 kg/m3
13607 kPa	967.2 kg/m3
13608 kPa	967.2 kg/m3 and 967.3 kg/m3 and 967 kg/m3
13609 kPa	967.3 kg/m3
13610 kPa	967.3 kg/m3
13612 kPa	967.2 kg/m3
13620 kPa	967.2 kg/m3
13632 kPa	967.3 kg/m3
13650 kPa	967.3 kg/m3
13671 kPa	967.3 kg/m3
13695 kPa	967.3 kg/m3
13719 kPa	967.4 kg/m3
13749 kPa	967.3 kg/m3
13774 kPa	967.4 kg/m3
13798 kPa	967.5 kg/m3
13828 kPa	967.5 kg/m3
13853 kPa	967.4 kg/m3
13878 kPa	967.4 kg/m3
13960 kPa	967.5 kg/m3
14011 kPa	967.6 kg/m3
14041 kPa	967.5 kg/m3
14066 kPa	967.5 kg/m3
14096 kPa	967.6 kg/m3
14122 kPa	967.7 kg/m3
14146 kPa	967.7 kg/m3
14176 kPa	967.7 kg/m3
14201 kPa	967.5 kg/m3
14227 kPa	967.6 kg/m3
14310 kPa	967.7 kg/m3
14444 kPa	967.9 kg/m3
14501 kPa	967.9 kg/m3
14527 kPa	967.9 kg/m3
14558 kPa	967.9 kg/m3
14584 kPa	967.8 kg/m3
14611 kPa	967.9 kg/m3
14643 kPa	967.9 kg/m3
14670 kPa	968 kg/m3
14696 kPa	968 kg/m3
14723 kPa	967.9 kg/m3
14870 kPa	968.1 kg/m3
14897 kPa	968.1 kg/m3
14930 kPa	968.2 kg/m3
14958 kPa	968.2 kg/m3
14985 kPa	968.3 kg/m3
15019 kPa	968.2 kg/m3
15047 kPa	968.3 kg/m3
15080 kPa	968.3 kg/m3
15108 kPa	968.2 kg/m3
15136 kPa	968.3 kg/m3
15164 kPa	968.3 kg/m3
15198 kPa	968.4 kg/m3
15226 kPa	968.5 kg/m3
15255 kPa	968.4 kg/m3
15642 kPa	968.6 kg/m3
15668 kPa	968.6 kg/m3
15694 kPa	968.7 kg/m3
15725 kPa	968.7 kg/m3
15751 kPa	968.8 kg/m3
15777 kPa	968.7 kg/m3
15808 kPa	968.8 kg/m3
15834 kPa	968.8 kg/m3
15864 kPa	968.9 kg/m3
15891 kPa	968.9 kg/m3
15916 kPa	968.8 kg/m3
15943 kPa	969 kg/m3
15974 kPa	968.8 kg/m3
16000 kPa	969 kg/m3
16057 kPa	969 kg/m3
16359 kPa	969 kg/m3
16386 kPa	969.2 kg/m3
16412 kPa	969.2 kg/m3
16439 kPa	969.4 kg/m3
16472 kPa	969.2 kg/m3
16494 kPa	969.2 kg/m3
16872 kPa	969.5 kg/m3
16899 kPa	969.5 kg/m3
16931 kPa	969.5 kg/m3
16957 kPa	969.5 kg/m3
16982 kPa	969.7 kg/m3
17013 kPa	969.6 kg/m3
17038 kPa	969.6 kg/m3
17064 kPa	969.6 kg/m3
17094 kPa	969.8 kg/m3
17120 kPa	969.7 kg/m3
17146 kPa	969.7 kg/m3
17177 kPa	969.8 kg/m3
17203 kPa	969.7 kg/m3
17229 kPa	969.8 kg/m3
17260 kPa	969.7 kg/m3
17286 kPa	969.9 kg/m3
17312 kPa	969.7 kg/m3
17344 kPa	969.7 kg/m3
17371 kPa	969.9 kg/m3
17398 kPa	969.9 kg/m3
17430 kPa	969.9 kg/m3
19111 kPa	971.1 kg/m3
19142 kPa	970.9 kg/m3
19168 kPa	971.1 kg/m3
19194 kPa	971.2 kg/m3
19226 kPa	971.2 kg/m3
19252 kPa	971.1 kg/m3
19282 kPa	971.1 kg/m3
19307 kPa	971.2 kg/m3
19331 kPa	971.4 kg/m3
19353 kPa	971.2 kg/m3
19375 kPa	971.2 kg/m3
19400 kPa	971.3 kg/m3
19422 kPa	971.2 kg/m3
19443 kPa	971.3 kg/m3
19469 kPa	971.4 kg/m3
19491 kPa	971.3 kg/m3
19512 kPa	971.3 kg/m3
19539 kPa	971.3 kg/m3
19561 kPa	971.4 kg/m3
19583 kPa	971.4 kg/m3
19609 kPa	971.4 kg/m3
19868 kPa	971.6 kg/m3
19886 kPa	971.6 kg/m3
19908 kPa	971.6 kg/m3
19925 kPa	971.7 kg/m3
19941 kPa	971.7 kg/m3
19959 kPa	971.7 kg/m3
19975 kPa	971.6 kg/m3
19990 kPa	971.8 kg/m3
20010 kPa	971.8 kg/m3
20026 kPa	971.6 kg/m3
20042 kPa	971.7 kg/m3
20054 kPa	971.7 kg/m3
20065 kPa	971.8 kg/m3
20075 kPa	971.6 kg/m3
20086 kPa	971.7 kg/m3
20099 kPa	971.8 kg/m3
20105 kPa	971.8 kg/m3
20106 kPa	971.8 kg/m3
20108 kPa	971.7 kg/m3
20111 kPa	971.8 kg/m3
20114 kPa	971.8 kg/m3
20116 kPa	971.8 kg/m3
20117 kPa	971.8 kg/m3
20118 kPa	971.7 kg/m3
20119 kPa	971.7 kg/m3
20121 kPa	971.6 kg/m3
20122 kPa	971.7 kg/m3
20124 kPa	971.6 kg/m3 and 971.8 kg/m3
20140 kPa	971.8 kg/m3
20174 kPa	971.9 kg/m3
20204 kPa	971.8 kg/m3
20239 kPa	971.8 kg/m3
20269 kPa	971.9 kg/m3
20298 kPa	971.8 kg/m3
20328 kPa	971.8 kg/m3
20365 kPa	971.9 kg/m3
20395 kPa	971.8 kg/m3
20426 kPa	972 kg/m3
20462 kPa	971.8 kg/m3
20493 kPa	972 kg/m3
20525 kPa	972 kg/m3
20558 kPa	971.9 kg/m3
20589 kPa	972 kg/m3
20626 kPa	972.1 kg/m3
20657 kPa	972.3 kg/m3
20689 kPa	972.1 kg/m3
20727 kPa	972.1 kg/m3
20759 kPa	972.2 kg/m3
20790 kPa	972.2 kg/m3
20828 kPa	972.3 kg/m3
20860 kPa	972.2 kg/m3
20892 kPa	972.2 kg/m3
20930 kPa	972.4 kg/m3
20963 kPa	972.3 kg/m3
20998 kPa	972.3 kg/m3
21030 kPa	972.4 kg/m3
21068 kPa	972.5 kg/m3
21101 kPa	972.4 kg/m3
21134 kPa	972.4 kg/m3
21166 kPa	972.5 kg/m3
21238 kPa	972.5 kg/m3
21271 kPa	972.5 kg/m3
21309 kPa	972.6 kg/m3
21339 kPa	972.6 kg/m3
21372 kPa	972.6 kg/m3
21399 kPa	972.7 kg/m3
21426 kPa	972.6 kg/m3
21732 kPa	972.7 kg/m3
21757 kPa	972.8 kg/m3
21782 kPa	972.8 kg/m3
21811 kPa	972.9 kg/m3
22020 kPa	972.9 kg/m3
22050 kPa	973.1 kg/m3
22076 kPa	973.1 kg/m3
22102 kPa	973 kg/m3
22132 kPa	973.1 kg/m3
22157 kPa	973 kg/m3
22183 kPa	973.2 kg/m3
22214 kPa	973.1 kg/m3
22240 kPa	973.1 kg/m3
22266 kPa	973.1 kg/m3
22296 kPa	973.1 kg/m3
22322 kPa	973.2 kg/m3
22348 kPa	973.2 kg/m3
22379 kPa	973.3 kg/m3
22405 kPa	973.1 kg/m3
22432 kPa	973.3 kg/m3
22458 kPa	973.2 kg/m3
22489 kPa	973.3 kg/m3
22515 kPa	973.3 kg/m3
22547 kPa	973.4 kg/m3
22573 kPa	973.4 kg/m3
23002 kPa	973.6 kg/m3
23035 kPa	973.7 kg/m3
23063 kPa	973.7 kg/m3
23092 kPa	973.8 kg/m3
23125 kPa	973.8 kg/m3
23154 kPa	973.8 kg/m3
23183 kPa	973.8 kg/m3
23212 kPa	973.9 kg/m3
23246 kPa	973.9 kg/m3
23274 kPa	973.9 kg/m3
23301 kPa	974 kg/m3
23332 kPa	973.8 kg/m3
23381 kPa	974 kg/m3
23410 kPa	974 kg/m3
23435 kPa	974 kg/m3
23459 kPa	974 kg/m3
23484 kPa	974.1 kg/m3
23514 kPa	973.9 kg/m3
23540 kPa	974.1 kg/m3
23566 kPa	974 kg/m3
23591 kPa	974.2 kg/m3
23616 kPa	974 kg/m3
23646 kPa	974.1 kg/m3
23671 kPa	974.1 kg/m3
23696 kPa	974.1 kg/m3
23727 kPa	974.1 kg/m3
23752 kPa	974 kg/m3
23782 kPa	974.2 kg/m3
23914 kPa	974.3 kg/m3
23941 kPa	974.3 kg/m3
23971 kPa	974.5 kg/m3
23997 kPa	974.2 kg/m3
24028 kPa	974.3 kg/m3
24054 kPa	974.2 kg/m3
24080 kPa	974.3 kg/m3
24106 kPa	974.3 kg/m3
24137 kPa	974.4 kg/m3
24163 kPa	974.4 kg/m3
24190 kPa	974.4 kg/m3
24221 kPa	974.4 kg/m3
24248 kPa	974.4 kg/m3
24279 kPa	974.4 kg/m3
24306 kPa	974.4 kg/m3
26698 kPa	976.1 kg/m3
26725 kPa	976 kg/m3
26758 kPa	976.2 kg/m3
26785 kPa	976.3 kg/m3
26812 kPa	976.3 kg/m3
26845 kPa	976.2 kg/m3
27601 kPa	976.6 kg/m3
27630 kPa	976.8 kg/m3
27660 kPa	976.8 kg/m3
27697 kPa	976.8 kg/m3
27728 kPa	976.7 kg/m3
27758 kPa	976.8 kg/m3
27787 kPa	976.8 kg/m3
27824 kPa	976.7 kg/m3
27854 kPa	976.9 kg/m3
